# Reference: patent US20220363665A1, “QUINOLINE COMPOUNDS FOR THE TREATMENT OF AUTOIMMUNE DISEASE” (Hoffmann-La Roche Inc., priority 2019, published 2022)
# Target: T1, human TLR7 (Homo sapiens, UniProt Q9NYK1)
# T1 construct: host or cells: HEK293 (HEK-Blue hTLR7)
# T1 sequence (Q9NYK1 27-1049): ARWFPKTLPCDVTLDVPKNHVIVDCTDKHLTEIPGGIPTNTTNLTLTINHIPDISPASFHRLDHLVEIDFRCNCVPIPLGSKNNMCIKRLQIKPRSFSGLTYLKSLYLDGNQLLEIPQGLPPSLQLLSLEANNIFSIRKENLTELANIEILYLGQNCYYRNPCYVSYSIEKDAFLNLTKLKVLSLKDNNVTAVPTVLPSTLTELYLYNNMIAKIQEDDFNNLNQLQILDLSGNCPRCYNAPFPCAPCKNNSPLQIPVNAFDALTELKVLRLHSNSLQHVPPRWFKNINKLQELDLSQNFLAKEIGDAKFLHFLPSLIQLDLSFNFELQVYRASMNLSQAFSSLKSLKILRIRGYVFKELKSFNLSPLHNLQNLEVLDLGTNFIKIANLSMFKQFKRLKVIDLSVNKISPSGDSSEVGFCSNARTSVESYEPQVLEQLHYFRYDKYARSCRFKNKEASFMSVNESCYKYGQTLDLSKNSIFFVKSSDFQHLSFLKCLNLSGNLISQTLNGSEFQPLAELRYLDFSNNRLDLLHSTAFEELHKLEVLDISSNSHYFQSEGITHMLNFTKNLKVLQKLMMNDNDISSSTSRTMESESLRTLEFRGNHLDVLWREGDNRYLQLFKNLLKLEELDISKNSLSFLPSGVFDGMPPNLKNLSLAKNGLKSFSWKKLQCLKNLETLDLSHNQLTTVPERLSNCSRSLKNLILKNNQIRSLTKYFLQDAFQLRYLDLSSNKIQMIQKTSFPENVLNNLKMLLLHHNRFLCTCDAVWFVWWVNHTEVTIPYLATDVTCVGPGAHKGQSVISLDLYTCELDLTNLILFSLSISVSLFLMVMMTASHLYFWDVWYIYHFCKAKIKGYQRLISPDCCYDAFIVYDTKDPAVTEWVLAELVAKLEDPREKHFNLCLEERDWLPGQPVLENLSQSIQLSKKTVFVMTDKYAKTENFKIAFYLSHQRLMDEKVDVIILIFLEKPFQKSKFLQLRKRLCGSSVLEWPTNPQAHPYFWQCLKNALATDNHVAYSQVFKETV
# Assay: HEK293-Blue-hTLR-7 cells assay (SEAP reporter, R848 stimulation)
# Type: cell-based
# Conditions: HEK293-Blue-hTLR7 cells, R848, 20 hrs
# Procedure: The following tests were carried out in order to determine the activity of the compounds of formula (I) in HEK293-Blue-hTLR-7/8/9 cells assay.
# HEK293-Blue-hTLR-7 Cells Assay:
# A stable HEK293-Blue-hTLR-7 cell line was purchased from InvivoGen (Cat. #: hkb-htlr7, San Diego, Calif. USA). These cells were originally designed for studying the stimulation of human TLR7 by monitoring the activation of NF-κB. A SEAP (secreted embryonic alkaline phosphatase) reporter gene was placed under the control of the IFN-β minimal promoter fused to five NF-κB and AP-1-binding sites. The SEAP was induced by activating NF-κB and AP-1 via stimulating HEK-Blue hTLR7 cells with TLR7 ligands. Therefore the reporter expression was declined by TLR7 antagonist under the stimulation of a ligand, such as R848 (Resiquimod), for incubation of 20 hrs. The cell culture supernatant SEAP reporter activity was determined using QUANTI-Blue™ kit (Cat. #: rep-qbl, Invivogen, San Diego, Calif., USA) at a wavelength of 640 nm, a detection medium that turns purple or blue in the presence of alkaline phosphatase.
# HEK293-Blue-hTLR7 cells were incubated at a density of 250,000˜450,000 cells/mL in a volume of 170 μL in a 96-well plate in Dulbecco's Modified Eagle's medium (DMEM) containing 4.5 g/L glucose, 50 U/mL penicillin, […], […], 2 mM L-glutamine, 10% (v/v) heat-inactivated fetal bovine serum with addition of 20 μL A test compound in a serial dilution in the presence of final DMSO at 1% and 10 μL of 20 uM R848 in above DMEM, perform incubation under 37° C. in a CO2 incubator for 20 hrs. Then 20 μL of the supernatant from each well was incubated with 180 μQuanti-blue substrate solution at 37° C. for 2 hrs and the absorbance was read at 620˜655 nm using a spectrophotometer. The signalling pathway that TLR7 activation leads to downstream NF-κB activation has been widely accepted, and therefore similar reporter assay was modified for evaluating TLR7 antagonist.
row,Compound,IC50 [nM]
1,"C[C@@H]1CN(c2ccc(C(F)(F)F)c3ncccc23)C[C@H](C(=O)N[C@@H]2CNC[C@@H]2F)O1 (single isomer, unassigned) [Example 2A]",41
2,"C[C@@H]1CN(c2ccc(C(F)(F)F)c3ncccc23)C[C@H](C(=O)NC2CC3CCCC(C2)N3)O1 (single isomer, unassigned) [Example 34A]",4
3,"C[C@@H]1CN(c2ccc(C(F)(F)F)c3ncccc23)C[C@H](C(=O)NC2C3CNCC2COC3)O1 (single isomer, unassigned) [Example 46B]",21
4,"C[C@@H]1CN(c2ccc(C(F)(F)F)c3ncccc23)C[C@H](C(=O)NC2CC3CCC(C2)N3)O1 (single isomer, unassigned) [Example 47A]",< 3
5,"C[C@@H]1CN(c2ccc(C(F)(F)F)c3ncccc23)C[C@H](C(=O)NC2CC3CCC(C2)N3)O1 (single isomer, unassigned) [Example 47B]",< 3
6,"C[C@@H]1CN(c2ccc(C(F)(F)F)c3ncccc23)C[C@H](C(=O)NC2CNC[C@@H]2F)O1 (stereo partly drawn) [Example 2, cis-(2R,6R)-N-(4-fluoropyrrolidin-3-yl)-6-methyl-4-[8-(trifluoromethyl)-5-quinolyl]morpholine-2-carboxamide]",52
7,"C[C@@H]1CN(c2ccc(C(F)(F)F)c3ncccc23)C[C@H](C(=O)N2CC(N)C2)O1 [Example 7, (3-aminoazetidin-1-yl)-[(2R,6R)-6-methyl-4-[8-(trifluoromethyl)-5-quinolyl]morpholin-2-yl]methanone]",63
8,"C[C@@H]1CN(c2ccc([N+](=O)[O-])c3ncccc23)C[C@H](C(=O)N[C@@H]2CNC[C@@H]2F)O1 [Example 19, cis-(2R,6R)-N-[41-fluoropyrrolidin-3-yl]-6-methyl-4-(8-nitro-5-quinolyl)morpholine-2-carboxamide]",14
9,"Cc1ccc(N2C[C@@H](C)O[C@@H](C(=O)N[C@@H]3CNC[C@@H]3F)C2)c2cccnc12 [Example 21, cis-(2R,6R)-N-14-fluoropyrrolidin-3-yl1-6-methyl-4-(8-methyl-5-quinolyl)morpholine-2carboxamide]",71
10,"C[C@@H]1CN(c2ccc(Cl)c3ncccc23)C[C@H](C(=O)N[C@H]2CNC[C@H]2F)O1 [Example 22, (2R,6R)-4-(8-chloro-5-quinolyl)-N-[(3S,4R)-4-fluoropyrrolidin-3-yl]-6-methyl-morpholine-2-carboxamide]",39
11,"C[C@@H]1CN(c2ccc(C(F)(F)F)c3ncccc23)C[C@H](C(=O)NCC2CNCC2(F)F)O1 (stereo partly drawn) [Example 29, (2R,6R)-N-[(4,4-difluoropyrrolidin-3-yl)methyl]-6-methyl-4-[8-(trifluoromethyl)-5-quinolyl]morpholine-2-carboxamide]",37
12,"C[C@@H]1CN(c2ccc(C(F)(F)F)c3ncccc23)C[C@H](C(=O)NC2CC3COCC(C2)N3)O1 (stereo partly drawn) [Example 33, (2R,6R)-6-methyl-N-(3-oxa-9-azabicyclo[3.3.1]nonan-7-yl)-4-[8-(trifluoromethyl)-5-quinolyl]morpholine-2-carboxamide]",2
13,C[C@@H]1CN(c2ccc(C(F)(F)F)c3ncccc23)C[C@H](C(=O)NC2C[C@H]3C[C@@H]2CN3)O1 (some centres unmarked) [Example 44],18

# More lines, now with the values ahead:
row,IC50 [nM],Compound
1,15,"C[C@@H]1CN(c2ccc(C(F)(F)F)c3ncccc23)C[C@H](C(=O)N[C@H]2CNC[C@H]2F)O1 (single isomer, unassigned) [Example 2B]"
2,8,"C[C@@H]1CN(c2ccc(C(F)(F)F)c3ncccc23)C[C@H](C(=O)NC2C3CNCC2COC3)O1 (single isomer, unassigned) [Example 46A]"
3,5,"C[C@H]1C[C@@H](N)CN(c2ccc(C(F)(F)F)c3ncccc23)C1 [Example 1, (3R,5S)-5-methyl-1-[8-(trifluoromethyl)-5-quinolyl]piperidin-3-amine]"
4,15,"C[C@@H]1CN(c2ccc(I)c3ncccc23)C[C@H](C(=O)NC2CNCC2F)O1 (stereo partly drawn) [Example 40, cis-(2R,6R)-N-[4-fluoropyrrolidin-3-yl]-4-(8-iodo-5-quinolyl)-6-methyl-morpholine-2-carboxamide]"
5,15,"C[C@@H]1CN(c2ccc(Br)c3ncccc23)C[C@H](C(=O)NC2CNCC2F)O1 (stereo partly drawn) [Example 41, cis-(2R,6R)-4-(8-bromo-5-quinolyl)-N-[4-fluoropyrrolidin-3-yl]-6-methyl-morpholine-2-carboxamide]"
6,10,"C#Cc1ccc(N2C[C@@H](C)O[C@@H](C(=O)NC3CCN(C)CC3)C2)c2cccnc12 [Example 43, (2R,6R)-4-(8-ethynyl-5-quinolyl)-6-methyl-N-(1-methyl-4-piperidyl)morpholine-2-carboxamide]"
7,< 3,"C[C@@H]1CN(c2ccc(C(F)(F)F)c3ncccc23)C[C@H](C(=O)NC2C3CCCC2CNC3)O1 (stereo partly drawn) [Example 45, (2R,6R)-N-(3-azabicyclo[3.3.1]nonan-9-yl)-6-methyl-4-[8-(trifluoromethyl)-5-quinolyl]morpholine-2-carboxamide]"
8,4,"C[C@@H]1CN(c2ccc(C(F)(F)F)c3ncccc23)C[C@H](C(=O)NCC2CNCCO2)O1 (stereo partly drawn) [Example 48, (2R,6R)-6-methyl-N-(morpholin-2-ylmethyl)-4-[8-(trifluoromethyl)-5-quinolyl]morpholine-2-carboxamide]"

# Target: T2, CYP2C9 (Homo sapiens, UniProt P11712)
# T2 construct: tissue BD-Gentest 452117; host or cells: human liver microsomes
# T2 sequence (P11712 whole entry): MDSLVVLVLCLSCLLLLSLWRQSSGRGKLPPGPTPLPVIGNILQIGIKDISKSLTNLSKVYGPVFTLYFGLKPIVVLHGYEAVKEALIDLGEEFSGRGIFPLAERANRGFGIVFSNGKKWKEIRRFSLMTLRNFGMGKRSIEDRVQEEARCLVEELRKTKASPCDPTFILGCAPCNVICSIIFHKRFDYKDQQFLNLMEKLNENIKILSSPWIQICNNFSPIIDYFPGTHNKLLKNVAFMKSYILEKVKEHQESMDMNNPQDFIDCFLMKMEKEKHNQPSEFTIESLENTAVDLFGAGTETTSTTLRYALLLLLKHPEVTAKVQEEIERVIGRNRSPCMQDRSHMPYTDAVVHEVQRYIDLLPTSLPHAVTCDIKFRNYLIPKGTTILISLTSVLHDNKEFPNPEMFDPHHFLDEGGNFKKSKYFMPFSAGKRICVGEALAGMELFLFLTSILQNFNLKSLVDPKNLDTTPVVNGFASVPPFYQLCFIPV
# Assay: CYP inhibition assay in human liver microsome, CYP2C9
# Type: in vitro ADME
# Conditions: HLM, diclofenac substrate, 10 µM
# Procedure: This is a high throughput screening assay used for assessment of reversible inhibition of CYP2C9, CYP2D6, and CYP3A4 activity of test compounds in human liver microsome (HLM) in early discovery stage.
# 10 mM DMSO stock solutions of test compounds were diluted in DMSO to generate 2 mM intermediate stock solution. 250 nL of intermediate stock solution were transferred in duplicate into 3 separate 384 well microtitre plates (assay-ready plates). A mixture of HLM and each substrate was made up. 45 μL of HLM substrate mix was then transferred to each well of an assay ready plate and mixed. The negative (solvent) and positive controls (standard inhibitor for each CYP) were included in each assay ready plate. The assay ready plate was warmed to 37° C. in an incubator over 10 minutes. 5 μL pre-warmed NADPH regenerating system was added to each incubation well to start the reaction. Final incubation volume was 50 μL. The assay plate then was placed back in the 37° C. incubator. After 5 minutes incubation (10 minutes for CYP2D6), incubates were quenched by addition of 50 μL quench reagent containing internal standards (400 ng/mL 13C6-4′-OH-Diclofenac, 20 ng/mL D3-Dextrorphan and 20 ng/mL D4-1′OH-Midazolam in acetonitrile). The supernatants were collected for RapidFire/MS/MS analysis.
# RapidFire online solid phase extraction/sample injection system (Agilent) coupled with API4000 triple quadrupole mass spectrometer (AB Sciex) were used for sample analysis. The mobile phase composed of acetonitrile and water supplemented with 0.1% formic acid. A C4 solid phase extraction cartridge is used for sample separation. MS detection is achieved in positive ion MRM mode.
# Peak areas for substrate, metabolite and internal standard are determined using the
# RapidFire integrator software (version 3.6.12009.12296). Peak area ratios (PAR) of metabolite and internal standard (stable-labelled metabolite) are then calculated. The measurement window for each experiment is then defined:
# PAR (0% activity)=average PAR for all incubations containing concentrated inhibitor;
# Par (100% activity)=average PAR for all incubations containing no inhibitor (DMSO controls);
# % Activity (test inhibitor) =[PAR(test inhibitor)-PAR(0% activity)][PAR(100% activity)-PAR(0% activity)];
# % Inhibition (test inhibitor)=100-% Activity (test inhibitor).
# Percentage inhibition data are then reported, in duplicate, for the 3 CYP enzymes.
row,Compound,CYP inhibition % @10 uM (2C9) [%]
1,"C[C@@H]1CN(c2ccc(C(F)(F)F)c3ncccc23)C[C@H](C(=O)NC2CC3CCCC(C2)N3)O1 (single isomer, unassigned) [Example 34A]",−6

# Same assay, conditions: human, liver microsomes, probe diclofenac, HLM, diclofenac substrate, read-out: CYP inhibition % @10 uM (2C9)
row,"inhibition at 5 min, 10 µM [%]",Compound
1,26,"C[C@@H]1CN(c2ccc(C(F)(F)F)c3ncccc23)C[C@H](C(=O)N[C@@H]2CNC[C@@H]2F)O1 (single isomer, unassigned) [Example 2A]"
